# Source: ChEMBL document CHEMBL4828775, “Antimicrobial and Cytotoxic Angucyclic Quinones from Actinomadura miaoliensis” (J Nat Prod, 2021)
# What was measured:
# [1] = system: Vero; assay: Cytotoxicity against African green monkey Vero cells assessed as reduction in cell viability by resazurin microplate assay; assay type: cell-based; conditions: Chlorocebus sabaeus
# [2] = system: NCI-H187; assay: Cytotoxicity against human NCI-H187 cells assessed as reduction in cell viability by resazurin microplate assay; assay type: functional, cell-based
# [3] = system: Staphylococcus aureus; assay: Antibacterial activity against Staphylococcus aureus assessed as inhibition of bacterial growth by CLSI based microdilution method; assay type: functional
# [4] = system: Curvularia lunata; assay: Antifungal activity against Curvularia lunata assessed as inhibition of fungal growth by CLSI based microdilution method; assay type: functional
# [5] = system: Alternaria brassicicola; assay: Antifungal activity against Alternaria brassicicola assessed as inhibition of fungal growth by CLSI based microdilution method; assay type: functional
# [6] = system: MCF7; assay: Cytotoxicity against human MCF7 cells assessed as reduction in cell viability by resazurin microplate assay; assay type: functional, cell-based
# [7] = system: Acinetobacter baumannii; assay: Antibacterial activity against Acinetobacter baumannii assessed as inhibition of bacterial growth by CLSI based microdilution method; assay type: functional
# [8] = system: Mycobacterium tuberculosis; assay: Antitubercular activity against Mycobacterium tuberculosis H37Ra assessed as inhibition of bacterial growth by green fluorescent protein based method; assay type: functional
# [9] = system: Plasmodium falciparum; assay: Antimalarial activity against Plasmodium falciparum K1 assessed as inhibition of parasite growth by microculture radioisotope technique; assay type: functional, organism-based
SMILES,IC50 [1] [µM],IC50 [2] [µM],MIC [3] [µM],MIC [4] [µM],MIC [5] [µM],IC50 [6] [µM],MIC [7] [µM],MIC [8] [µM],IC50 [9] [µM]
Cc1c2ccncc2c(C)c2c1[nH]c1ccccc12 [ELLIPTECINE],4.5,13.7,,,,,,,
CC1=C[C@@H]2O[C@]34CC[C@](O)(C1)[C@H]2[C@]3(O)[C@@H](O)c1cccc(O)c1C4=O,> 145,> 145,> 145,> 145,> 145,> 145,> 145,145,> 28
CC[C@H]1OC(=O)[C@H](C)[C@@H](O[C@H]2C[C@@](C)(OC)[C@@H](O)[C@H](C)O2)[C@H](C)[C@@H](O[C@@H]2O[C@H](C)C[C@H](N(C)C)[C@H]2O)[C@](C)(O)C[C@@H](C)C(=O)[C@H](C)[C@@H](O)[C@]1(C)O [ERYTHROMYCIN],,,,,,,8.5,,
CC1=CC(=O)[C@@H]2C3=C(CC[C@]2(O)C1)C(=O)c1c(O)cccc1C3=O,1.8,2.2,> 150,> 150,> 150,2.2,> 150,0.6,2.2
CC1=CC(=O)[C@@H]2[C@H]3[C@H](CC[C@]2(O)C1)C(=O)c1c(O)cccc1[C@@H]3O,147,> 150,> 150,> 150,> 150,> 150,> 150,9.5,28.3
CC1=C[C@@H](O)[C@@H]2C3=C(CC[C@]2(O)C1)C(=O)c1c(O)cccc1C3=O,1.1,2.3,> 150,> 150,> 150,3.4,> 150,2.4,2.5
Cc1cc(O)c2c(c1)CCC1=C2C(=O)c2cccc(O)c2C1=O,1.4,3,> 150,> 150,> 150,1.1,> 150,0.3,2.6
C[C@H]1[C@@H](O)O[C@@H]2O[C@@]3(C)CC[C@H]4[C@H](C)CC[C@@H]1[C@@]24OO3 [ARTENIMOL],,,,,,,,,0.002
CC1=C[C@@H](O)[C@H]2[C@](O)(CC[C@]3(O)C(=O)c4c(O)cccc4[C@H](O)[C@@]23O)C1,> 138,> 138,> 138,> 138,> 138,> 138,> 138,138,> 28
NNC(=O)c1ccncc1 [ISONIAZID],,,,,,,,0.5,
C[C@@H]1[C@H](O)[C@@H](C)/C=C/C=C/C=C/C=C/C=C/C=C/C=C/[C@H](O[C@@H]2O[C@H](C)[C@@H](O)[C@H](N)[C@@H]2O)C[C@@H]2O[C@](O)(C[C@@H](O)C[C@@H](O)[C@H](O)CC[C@@H](O)C[C@@H](O)CC(=O)O[C@H]1C)C[C@H](O)[C@H]2C(=O)O [AMPHOTERICIN B],,,,1.7,0.8,,,,
Cc1ccc2c3c(ccc2c1)C(=O)c1c(O)cccc1C3=O,35.4,83.3,> 150,> 150,> 150,55.3,> 150,10.9,> 35
CO[C@H]1/C=C/O[C@@]2(C)Oc3c(C)c(O)c4c(O)c(c(/C=N/N5CCN(C)CC5)c(O)c4c3C2=O)NC(=O)/C(C)=C\C=C\[C@H](C)[C@H](O)[C@@H](C)[C@@H](O)[C@@H](C)[C@H](OC(C)=O)[C@@H]1C [RIFAMPIN],,,1.9,,,,3.8,0.006,
CN[C@H](CC(C)C)C(=O)N[C@H]1C(=O)N[C@@H](CC(N)=O)C(=O)N[C@H]2C(=O)N[C@H]3C(=O)N[C@H](C(=O)N[C@H](C(=O)O)c4cc(O)cc(O)c4-c4cc3ccc4O)[C@H](O)c3ccc(c(Cl)c3)Oc3cc2cc(c3O[C@@H]2O[C@H](CO)[C@@H](O)[C@H](O)[C@H]2O[C@H]2C[C@](C)(N)[C@H](O)[C@H](C)O2)Oc2ccc(cc2Cl)[C@H]1O [VANCOMYCIN],,,0.3,,,,,,
Cc1cc(O)c2c3c(ccc2c1)C(=O)c1c(O)cccc1C3=O [TETRANGULOL],4.4,17.1,> 150,> 150,> 150,18,> 150,2.6,5.9
